Test results: the supplement of paper PMC10307832

Key:
Assay in all cases: relative viability (nuclei count vs DMSO), 5 days (fraction); higher = more cells survive
FH535 + Navitoclax = compound: CC1=C(C=CC(=C1)[N+](=O)[O-])NS(=O)(=O)C2=C(C=CC(=C2)Cl)Cl [FH535] + CC1(C)CCC(c2ccc(Cl)cc2)=C(CN2CCN(c3ccc(C(=O)NS(=O)(=O)c4ccc(N[C@H](CCN5CCOCC5)CSc5ccccc5)c(S(=O)(=O)C(F)(F)F)c4)cc3)CC2)C1 [Navitoclax] (partner 0.5 µM)
How it was run: (§1)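 Lung cancer cell lines were seeded in 1536-well plates and dosed by pin tool the next day, with either a single drug or a fixed anchor-drug dose combined with five library-drug doses (not always all listed) spaced in √10 steps. Five days later, one step fixed the cells and stained their nuclei (final 0.05% Triton X-100, 1% formaldehyde, 1 ug/ml Hoechst), and nuclei were counted on 4× images. Relative viability is the nuclei count in treated wells divided by the count in vehicle wells, and each value is the median of duplicate plates.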

FH535 + Lapatinib = compound: CC1=C(C=CC(=C1)[N+](=O)[O-])NS(=O)(=O)C2=C(C=CC(=C2)Cl)Cl [FH535] + CS(=O)(=O)CCNCc1ccc(-c2ccc3ncnc(Nc4ccc(OCc5cccc(F)c5)c(Cl)c4)c3c2)o1 [Lapatinib] (partner 2 µM)
How it was run: as §1

FH535 + Vorinostat = compound: CC1=C(C=CC(=C1)[N+](=O)[O-])NS(=O)(=O)C2=C(C=CC(=C2)Cl)Cl [FH535] + O=C(CCCCCCC(=O)Nc1ccccc1)NO [Vorinostat] (partner 1 µM)
How it was run: as §1

FH535 + Dasatinib = compound: CC1=C(C=CC(=C1)[N+](=O)[O-])NS(=O)(=O)C2=C(C=CC(=C2)Cl)Cl [FH535] + Cc1nc(Nc2ncc(C(=O)Nc3c(C)cccc3Cl)s2)cc(N2CCN(CCO)CC2)n1 [Dasatinib] (partner 0.075 µM)
How it was run: as §1

FH535 = compound: CC1=C(C=CC(=C1)[N+](=O)[O-])NS(=O)(=O)C2=C(C=CC(=C2)Cl)Cl [FH535]
How it was run: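 Following overnight incubation at 37 °C, lung cancer cell lines in 1536-well plates were pinned with five library-drug doses (not always all listed) in √10 steps on vehicle-anchored plates. The cells then spent 5 days without medium change before a combined fix, permeabilisation and Hoechst stain, 4× imaging and MetaXpress nuclear counts. Viability is the treated-to-vehicle ratio of nuclei, taken as the median across plates. Only plates with control CV below 25% and at least one doubling passed.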

| Cell Line | relative viability (FH535 + Navitoclax; first compound 0.04 µM) | relative viability (FH535 + Navitoclax; first compound 0.1265 µM) | relative viability (FH535 + Navitoclax; first compound 0.4 µM) | relative viability (FH535 + Navitoclax; first compound 1.265 µM) | relative viability (FH535 + Lapatinib; first compound 0.04 µM) | relative viability (FH535 + Lapatinib; first compound 0.1265 µM) | relative viability (FH535 + Lapatinib; first compound 0.4 µM) | relative viability (FH535 + Lapatinib; first compound 1.265 µM) | relative viability (FH535 + Vorinostat; first compound 0.04 µM) | relative viability (FH535 + Vorinostat; first compound 0.1265 µM) | relative viability (FH535 + Vorinostat; first compound 0.4 µM) | relative viability (FH535 + Vorinostat; first compound 1.265 µM) | relative viability (FH535 + Dasatinib; first compound 0.04 µM) | relative viability (FH535 + Dasatinib; first compound 0.1265 µM) | relative viability (FH535 + Dasatinib; first compound 0.4 µM) | relative viability (FH535 + Dasatinib; first compound 1.265 µM) | relative viability (FH535; 0.04 µM) | relative viability (FH535; 0.1265 µM) | relative viability (FH535; 0.4 µM) | relative viability (FH535; 1.265 µM) |
| --- | --- | --- | --- | --- | --- | --- | --- | --- | --- | --- | --- | --- | --- | --- | --- | --- | --- | --- | --- | --- |
| EMC-BAC-2 | 1.17 | 1.19 | 1.2 | 1.02 | 0.788 | 0.926 | 0.894 | 0.813 | 0.297 | 0.449 | 0.419 | 0.308 | 0.302 | 0.358 | 0.317 | 0.319 | 0.808 | 0.953 | 0.913 | 0.839 |
| NCI-H727 | 0.479 | 0.39 | 0.369 | 0.381 | 0.85 | 0.628 | 0.727 | 0.665 | 1.17 | 1.15 | 1.1 | 1.22 | 0.405 | 0.434 | 0.364 | 0.402 | 0.699 | 0.814 | 0.706 | 0.797 |
| LU99A | 0.716 | 0.667 | 0.844 | 0.844 | 0.739 | 1.05 | 0.969 | 0.866 | 0.356 | 0.484 | 0.487 | 0.464 | 0.435 | 0.439 | 0.468 | 0.507 | 0.812 | 0.973 | 0.854 | 0.811 |
| LK-2 | 0.788 | 0.855 | 1 | 1.06 | 0.982 | 0.854 | 0.91 | 0.775 | 0.166 | 0.301 | 0.29 | 0.485 | 0.308 | 0.248 | 0.294 | 0.327 | 0.919 | 0.983 | 0.996 | 1.17 |
| SW 900 |  |  |  |  |  |  |  |  | 0.483 | 0.257 | 0.378 | 0.358 | 0.481 | 0.748 | 0.507 | 0.63 | 0.962 | 0.754 | 0.789 | 0.743 |
| NCI-H322M | 1.13 | 1.39 | 1.19 | 1.2 | 0.504 | 0.554 | 0.555 | 0.595 | 0.898 | 0.878 | 0.83 | 0.744 | 0.255 | 0.268 | 0.238 | 0.219 | 0.92 | 0.93 | 0.937 | 0.761 |
| NCI-H2405 | 0.762 | 0.976 | 0.868 | 0.448 | 0.934 | 1.13 | 0.963 | 0.734 | 0.945 | 0.965 | 0.776 | 0.458 | 0.202 | 0.243 | 0.232 | 0.221 | 0.922 | 0.967 | 0.882 | 0.713 |
| NCI-H1563 |  |  |  |  | 0.737 | 0.959 | 0.898 | 0.864 |  |  |  |  | 0.445 | 0.495 | 0.508 | 0.435 | 0.954 | 0.892 | 0.995 | 0.771 |
| HCC-827 | 0.994 | 1.08 | 0.973 | 0.732 | 0.202 | 0.195 | 0.213 | 0.163 | 0.701 | 0.846 | 0.869 | 0.664 | 0.35 | 0.291 | 0.273 | 0.364 | 0.956 | 1.04 | 0.936 | 0.767 |
| NCI-H1666 | 0.934 | 0.956 | 1.07 | 0.693 | 0.601 | 0.623 | 0.634 | 0.421 | 1.01 | 0.995 | 0.992 | 0.959 | 0.833 | 0.85 | 0.716 | 0.64 | 0.986 | 0.976 | 0.954 | 0.93 |
| SK-MES-1 | 1.16 | 1.22 | 1.12 | 0.929 | 0.493 | 0.448 | 0.422 | 0.412 | 1.1 | 1.19 | 1.02 | 0.918 | 0.407 | 0.47 | 0.343 | 0.292 | 0.986 | 1.01 | 0.963 | 0.776 |
| 201T | 1.2 | 1.19 | 1.18 | 1.16 | 1.01 | 0.897 | 0.971 | 0.978 | 0.905 | 0.948 | 0.855 | 0.929 | 0.555 | 0.568 | 0.437 | 0.442 | 0.976 | 1 | 0.884 | 0.862 |
| RERF-LC-KJ | 1.15 | 0.784 | 1.11 | 0.719 | 0.916 | 0.884 | 0.824 | 0.714 | 0.632 | 0.64 | 0.685 | 0.573 | 0.845 | 0.805 | 0.747 | 0.502 | 0.947 | 0.998 | 0.962 | 0.808 |
| NCI-H3122 | 1.02 | 1.05 | 1.01 | 0.947 | 1.01 | 0.978 | 0.999 | 0.89 | 0.901 | 1.1 | 0.979 | 0.966 | 0.703 | 0.782 | 0.713 | 0.719 | 0.933 | 0.995 | 0.978 | 0.885 |
